Measured values reported in PubChem BioAssay (NCI).
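Five concentrations, 48 hours, 96-well plates. The concentration for 50% growth inhibition is given as GI50. Definition used: TGI = concentration required for complete inhibition of growth.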

What was measured:
Test in all cases: NCI tumour cell line growth inhibition, 48 h
ACHN renal = tested on: ACHN renal
DU-145 prostate = tested on: DU-145 prostate
MCF7 breast = tested on: MCF7 breast
T-47D breast = tested on: T-47D breast
HL-60(TB) leukemia = tested on: HL-60(TB) leukemia
HOP-92 NSCLC = tested on: HOP-92 NSCLC
OVCAR-8 ovarian = tested on: OVCAR-8 ovarian
LOX IMVI melanoma = tested on: LOX IMVI melanoma
BT-549 breast = tested on: BT-549 breast
SNB-75 CNS = tested on: SNB-75 CNS
CAKI-1 renal = tested on: CAKI-1 renal
HCT-15 colon = tested on: HCT-15 colon
NCI/ADR-RES ovarian = tested on: NCI/ADR-RES ovarian
SK-OV-3 ovarian = tested on: SK-OV-3 ovarian
UACC-62 melanoma = tested on: UACC-62 melanoma
NCI-H226 lung = tested on: NCI-H226 lung
OVCAR-5 ovarian = tested on: OVCAR-5 ovarian
UO-31 renal = tested on: UO-31 renal
SN12C renal = tested on: SN12C renal
OVCAR-3 ovarian = tested on: OVCAR-3 ovarian
M14 melanoma = tested on: M14 melanoma
HCC-2998 colon = tested on: HCC-2998 colon
HT29 colon = tested on: HT29 colon
CCRF-CEM leukemia = tested on: CCRF-CEM leukemia
KM12 colon = tested on: KM12 colon
MOLT-4 leukemia = tested on: MOLT-4 leukemia
NCI-H522 lung = tested on: NCI-H522 lung
RPMI-8226 leukemia = tested on: RPMI-8226 leukemia
EKVX NSCLC = tested on: EKVX NSCLC
SR leukemia = tested on: SR leukemia
TK-10 renal = tested on: TK-10 renal
K-562 leukemia = tested on: K-562 leukemia
NCI-H23 lung = tested on: NCI-H23 lung
MDA-MB-231 breast = tested on: MDA-MB-231 breast
SK-MEL-28 melanoma = tested on: SK-MEL-28 melanoma
SK-MEL-2 melanoma = tested on: SK-MEL-2 melanoma
SW-620 colon = tested on: SW-620 colon
SNB-19 CNS = tested on: SNB-19 CNS
786-0 renal = tested on: 786-0 renal
SK-MEL-5 melanoma = tested on: SK-MEL-5 melanoma
UACC-257 melanoma = tested on: UACC-257 melanoma
HS 578T breast = tested on: HS 578T breast
U251 CNS = tested on: U251 CNS
HCT-116 colon = tested on: HCT-116 colon
OVCAR-4 ovarian = tested on: OVCAR-4 ovarian
SF-539 CNS = tested on: SF-539 CNS
HOP-62 NSCLC = tested on: HOP-62 NSCLC
SF-268 CNS = tested on: SF-268 CNS
RXF 393 renal = tested on: RXF 393 renal
MALME-3M melanoma = tested on: MALME-3M melanoma
IGROV1 ovarian = tested on: IGROV1 ovarian
A498 renal = tested on: A498 renal
COLO 205 colon = tested on: COLO 205 colon
MDA-MB-435 = tested on: MDA-MB-435
SF-295 CNS = tested on: SF-295 CNS
PC-3 prostate = tested on: PC-3 prostate
A549 NSCLC = tested on: A549 NSCLC

## COc1cccc2c1C(=O)c1c(O)c3c(c(O)c1C2=O)C[C@@](O)(C(C)=O)C[C@@H]3O[C@H]1C[C@H](N)[C@H](O)[C@H](C)O1
ACHN renal
  GI50: 45.2 nM
  TGI: 395 nM
DU-145 prostate
  GI50: 68.7 nM
  TGI: 340 nM
MCF7 breast
  GI50: 19.5 nM
  TGI: 2040 nM
T-47D breast
  GI50: 40.8 nM
  TGI: 312 nM
HL-60(TB) leukemia
  GI50: 31.2 nM
  TGI: 358 nM
HOP-92 NSCLC
  GI50: 29.6 nM
  TGI: 276 nM
OVCAR-8 ovarian
  GI50: 41.6 nM
  TGI: 1090 nM
LOX IMVI melanoma
  TGI: 107 nM
BT-549 breast
  GI50: 153 nM
  TGI: 924 nM
SNB-75 CNS
  GI50: 39.1 nM
  TGI: 359 nM
CAKI-1 renal
  GI50: 229 nM
  TGI: 1530 nM
HCT-15 colon
  TGI: 5690 nM
NCI/ADR-RES ovarian
  GI50: 1230 nM
  TGI: 9040 nM
SK-OV-3 ovarian
  GI50: 88.7 nM
  TGI: 1320 nM
UACC-62 melanoma
  GI50: 59.8 nM
  TGI: 205 nM
NCI-H226 lung
  GI50: 53.2 nM
  TGI: 119 nM
OVCAR-5 ovarian
  GI50: 155 nM
  TGI: 2260 nM
UO-31 renal
  GI50: 175 nM
  TGI: 1260 nM
SN12C renal
  GI50: 41.6 nM
  TGI: 451 nM
OVCAR-3 ovarian
  GI50: 125 nM
  TGI: 777 nM
M14 melanoma
  GI50: 118 nM
  TGI: 653 nM
HCC-2998 colon
  GI50: 99.2 nM
  TGI: 475 nM
HT29 colon
  GI50: 50.7 nM
  TGI: 337 nM
CCRF-CEM leukemia
  GI50: 22.8 nM
  TGI: 293 nM
KM12 colon
  GI50: 96 nM
  TGI: 497 nM
MOLT-4 leukemia
  GI50: 16.5 nM
  TGI: 117 nM
NCI-H522 lung
  GI50: 36.2 nM
  TGI: 163 nM
RPMI-8226 leukemia
  GI50: 90.2 nM
  TGI: 327 nM
EKVX NSCLC
  GI50: 360 nM
  TGI: 2630 nM
SR leukemia
  GI50: 7.24 nM
  TGI: 188 nM
TK-10 renal
  GI50: 93.6 nM
  TGI: 793 nM
K-562 leukemia
  GI50: 51.3 nM
  TGI: 868 nM
NCI-H23 lung
  GI50: 59.4 nM
  TGI: 262 nM
MDA-MB-231 breast
  GI50: 201 nM
  TGI: 2750 nM
SK-MEL-28 melanoma
  GI50: 132 nM
  TGI: 680 nM
SK-MEL-2 melanoma
  GI50: 158 nM
  TGI: 506 nM
SW-620 colon
  GI50: 35.5 nM
  TGI: 855 nM
SNB-19 CNS
  GI50: 36.1 nM
  TGI: 1350 nM
786-0 renal
  GI50: 68.5 nM
  TGI: 517 nM
SK-MEL-5 melanoma
  GI50: 48.8 nM
  TGI: 143 nM
UACC-257 melanoma
  TGI: 426 nM
HS 578T breast
  GI50: 120 nM
  TGI: 1820 nM
U251 CNS
  GI50: 38.1 nM
  TGI: 217 nM
HCT-116 colon
  GI50: 28.6 nM
  TGI: 216 nM
OVCAR-4 ovarian
  GI50: 128 nM
  TGI: 1060 nM
SF-539 CNS
  TGI: 546 nM
HOP-62 NSCLC
  GI50: 53 nM
  TGI: 263 nM
SF-268 CNS
  GI50: 54.8 nM
  TGI: 585 nM
RXF 393 renal
  GI50: 92.4 nM
  TGI: 341 nM
MALME-3M melanoma
  TGI: 235 nM
IGROV1 ovarian
  GI50: 60.9 nM
  TGI: 2580 nM
A498 renal
  TGI: 896 nM
COLO 205 colon
  GI50: 52.4 nM
  TGI: 655 nM
MDA-MB-435
  GI50: 137 nM
  TGI: 672 nM
SF-295 CNS
  GI50: 42.8 nM
  TGI: 245 nM
PC-3 prostate
  GI50: 108 nM
  TGI: 975 nM
A549 NSCLC
  GI50: 42.7 nM
  TGI: 201 nM
